From PubChem BioAssay (NCI)
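Briefly, cells in 96-well plates were exposed to five compound concentrations for 48 h, and endpoints were estimated by linear interpolation. TGI denotes the concentration required for complete inhibition of growth.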

Legend:
Assay in all cases: NCI tumour cell line growth inhibition, 48 h
786-0 renal = system: 786-0 renal
A549 NSCLC = system: A549 NSCLC
ACHN renal = system: ACHN renal
COLO 205 colon = system: COLO 205 colon
DMS 114 small cell lung = system: DMS 114 small cell lung
DMS 273 small cell lung = system: DMS 273 small cell lung
EKVX NSCLC = system: EKVX NSCLC
HCT-116 colon = system: HCT-116 colon
HCT-15 colon = system: HCT-15 colon
HOP-62 NSCLC = system: HOP-62 NSCLC
HT29 colon = system: HT29 colon
IGROV1 ovarian = system: IGROV1 ovarian
K-562 leukemia = system: K-562 leukemia
KM12 colon = system: KM12 colon
KM20L2 colon = system: KM20L2 colon
LOX IMVI melanoma = system: LOX IMVI melanoma
LXFL 529 NSCLC = system: LXFL 529 NSCLC
M14 melanoma = system: M14 melanoma
M19-MEL melanoma = system: M19-MEL melanoma
MALME-3M melanoma = system: MALME-3M melanoma
MOLT-4 leukemia = system: MOLT-4 leukemia
NCI-H226 lung = system: NCI-H226 lung
NCI-H23 lung = system: NCI-H23 lung
NCI-H460 lung = system: NCI-H460 lung
NCI-H522 lung = system: NCI-H522 lung
OVCAR-3 ovarian = system: OVCAR-3 ovarian
OVCAR-4 ovarian = system: OVCAR-4 ovarian
OVCAR-5 ovarian = system: OVCAR-5 ovarian
OVCAR-8 ovarian = system: OVCAR-8 ovarian
RPMI-8226 leukemia = system: RPMI-8226 leukemia
RXF 393 renal = system: RXF 393 renal
SF-268 CNS = system: SF-268 CNS
SF-295 CNS = system: SF-295 CNS
SF-539 CNS = system: SF-539 CNS
SK-MEL-2 melanoma = system: SK-MEL-2 melanoma
SK-MEL-28 melanoma = system: SK-MEL-28 melanoma
SK-MEL-5 melanoma = system: SK-MEL-5 melanoma
SN12C renal = system: SN12C renal
SNB-19 CNS = system: SNB-19 CNS
SNB-75 CNS = system: SNB-75 CNS
SNB-78 CNS = system: SNB-78 CNS
SW-620 colon = system: SW-620 colon
TK-10 renal = system: TK-10 renal
U251 CNS = system: U251 CNS
UACC-62 melanoma = system: UACC-62 melanoma
UO-31 renal = system: UO-31 renal
XF 498 CNS = system: XF 498 CNS
A498 renal = system: A498 renal
CAKI-1 renal = system: CAKI-1 renal
CCRF-CEM leukemia = system: CCRF-CEM leukemia
DLD-1 colon = system: DLD-1 colon
HCC-2998 colon = system: HCC-2998 colon
HL-60(TB) leukemia = system: HL-60(TB) leukemia
HOP-18 NSCLC = system: HOP-18 NSCLC
HOP-92 NSCLC = system: HOP-92 NSCLC
SK-OV-3 ovarian = system: SK-OV-3 ovarian
SR leukemia = system: SR leukemia
UACC-257 melanoma = system: UACC-257 melanoma

Measured: TGI

COC(=O)[C@]12CSCN1C(=O)C(C(C)=O)=NN2C(=O)[C@](OC)(c1ccccc1)C(F)(F)F
not listed: A498 renal | CAKI-1 renal | CCRF-CEM leukemia | DLD-1 colon | HCC-2998 colon | HL-60(TB) leukemia | HOP-18 NSCLC | HOP-92 NSCLC | SK-OV-3 ovarian | SR leukemia | UACC-257 melanoma
> 100 µM: all other assays above

NC(N)=C1CN(C2CCCCC2)C(=O)NC1=O
not listed: EKVX NSCLC | XF 498 CNS
> 100 µM: all other assays above

Nc1nc2c(nc(N)n2Cc2ccccc2)c(=O)[nH]1
not listed: NCI-H226 lung | SF-539 CNS | SNB-78 CNS | HOP-18 NSCLC
> 100 µM: all other assays above

COc1cccc(NC(=O)CC(=O)N2NC(c3ccccc3)C(N=Nc3cccc(C(=O)O)c3)C2=O)c1 (stereo unspecified)
not listed: COLO 205 colon | DMS 273 small cell lung | HCT-15 colon | K-562 leukemia | NCI-H522 lung | SK-MEL-2 melanoma | CCRF-CEM leukemia | HL-60(TB) leukemia | HOP-18 NSCLC
> 100 µM: all other assays above

CCCNC(=O)C(C)(Cl)C(=O)c1ccccc1O (stereo unspecified)
not listed: EKVX NSCLC | HT29 colon | LOX IMVI melanoma | NCI-H23 lung | OVCAR-5 ovarian | SF-295 CNS | XF 498 CNS | HOP-92 NSCLC
> 100 µM: all other assays above
